Results on 34 molecules are retold here after ChEMBL document CHEMBL4706644, “Structure-Activity Relationship Studies of Pyrimidine-4-Carboxamides as Inhibitors of N-Acylphosphatidylethanolamine Phospholipase D” (J Med Chem, 2021).

Assay [1] addresses T1, N-acyl-phosphatidylethanolamine-hydrolyzing phospholipase D (Homo sapiens, UniProt Q6IQ20). Description: Inhibition of full length human NAPE-PLD expressed in HEK293T cell lysate using PED6 as substrate preincubated for 30 mins followed by substrate addition and measured at 2 mins interval for 1 hr by tecan-plate reader analysis. The class given is subcellular.
For assay [2], the target named is T2, N-acyl-phosphatidylethanolamine-hydrolyzing phospholipase D (Mus musculus, UniProt Q8BH82).
T2 sequence (Q8BH82 whole entry): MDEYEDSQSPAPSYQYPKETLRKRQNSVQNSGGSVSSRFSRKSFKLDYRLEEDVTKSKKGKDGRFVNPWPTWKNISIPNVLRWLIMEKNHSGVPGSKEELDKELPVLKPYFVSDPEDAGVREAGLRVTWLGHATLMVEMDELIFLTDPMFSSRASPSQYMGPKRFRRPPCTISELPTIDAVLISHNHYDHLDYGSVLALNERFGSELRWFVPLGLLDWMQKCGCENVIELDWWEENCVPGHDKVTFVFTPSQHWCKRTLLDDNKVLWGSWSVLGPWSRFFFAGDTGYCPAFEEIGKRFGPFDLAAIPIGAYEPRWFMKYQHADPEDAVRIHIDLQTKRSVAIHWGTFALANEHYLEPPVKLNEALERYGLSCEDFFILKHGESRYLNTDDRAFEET
In words: Inhibition of full length mouse NAPE-PLD expressed in HEK293T cell lysate using PED6 as substrate preincubated for 30 mins followed by substrate addition and measured at 2 mins interval for 1 hr by tecan-plate reader analysis. It is filed as subcellular.

Assay [3] deals with T1, N-acyl-phosphatidylethanolamine-hydrolyzing phospholipase D. In words: Inhibition of full length human NAPE-PLD expressed in HEK293 cells using radiolabelled diether-NAPE as substrate incubated for 20 mins by liquid scintillation counter analysis.

SMILES strings stand for the structures. pIC50: −log10 of the molar value. A value given as a limit tells only on which side of the number the result lay.

T1 sequence (Q6IQ20 whole entry): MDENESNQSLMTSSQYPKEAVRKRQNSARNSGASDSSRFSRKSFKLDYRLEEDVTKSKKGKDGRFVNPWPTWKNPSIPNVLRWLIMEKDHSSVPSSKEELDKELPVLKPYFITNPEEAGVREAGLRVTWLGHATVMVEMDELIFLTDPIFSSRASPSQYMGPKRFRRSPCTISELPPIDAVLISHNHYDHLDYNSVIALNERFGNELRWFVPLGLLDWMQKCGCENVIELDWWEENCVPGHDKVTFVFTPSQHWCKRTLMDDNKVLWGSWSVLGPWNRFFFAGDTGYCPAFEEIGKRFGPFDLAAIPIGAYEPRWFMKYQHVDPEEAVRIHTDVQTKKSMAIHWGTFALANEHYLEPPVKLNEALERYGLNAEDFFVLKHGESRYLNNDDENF

With `CNC(=O)c1cc(N2CCOCC2)nc(N(C)CCc2ccccc2)n1`, in assay [1], the pIC50 is 4.87. Same read-out and setting: under `CN(CCc1ccccc1)c1nc(-c2ncc(C3CC3)[nH]2)cc(N2CCOCC2)n1` stands 4.39; under `CN(CCc1ccccc1)c1nc(C(N)=O)cc(N2CCOCC2)n1`, 4.75; under `CN(CC1CC1)C(=O)c1cc(N2CCOCC2)nc(N(C)CCc2ccccc2)n1`, below 4.30. In assay [1], `O=C(NCC1CC1)c1cc(N2CCOCC2)nc(N2CCCCC2CC2CCCCC2)n1` (racemic) had a negative logarithm of the IC50 (pIC50) of 4.60. In turn, `COCCNC(=O)c1cc(N2CCOCC2)nc(N(C)CCc2ccccc2)n1` showed a pIC50 in assay [1] of 4.96. As to `CN(CCc1ccccc1)c1nc(C(=O)NCC(C)(C)C)cc(N2CCOCC2)n1`, in assay [1], the pIC50 is 4.67. Against the preceding molecule, the pIC50 is 0.29 log units lower. In assay [2], `O=C(NCC1CC1)c1cc(N2CCOCC2)nc(N2CCC[C@@H](c3ccccc3)C2)n1` gave a pIC50 of 6.24. Take `O=C(NCC1CC1)c1cc(N2CC[C@@H](O)C2)nc(N2CCC[C@@H](c3ccccc3)C2)n1`: the pIC50 in assay [2] is 6.42.

For `CN(CCc1ccccc1)c1nc(C(=O)NCc2ccc(-c3ccccc3)cc2)cc(N2CCOCC2)n1`, the pIC50 in assay [1] is below 4.30. In the case of `O=C(NCC1CC1)c1cc(N2CCOCC2)nc(N(CCc2ccccc2)Cc2ccccc2)n1`, the pIC50 in assay [1] is 6.13. `CN(CCc1ccccc1)c1nc(NC(=O)CC2CC2)cc(N2CCOCC2)n1` gave a pIC50 in assay [1] of 5.12. In assay [1], `O=C(NCC1CC1)c1cc(N2CCOCC2)ncn1` had a pIC50 below 4.30.

In turn, `O=C(NCC1CC1)c1cc(N2CCOCC2)nc(NCc2ccccc2)n1` had a pIC50 in assay [1] of 4.64. For `CN(CCc1ccccc1)c1nc(C(=O)NCC2CC2)cc(N2CCOCC2)n1`, the pIC50 was 6.09 in assay [1] and 5.48 in assay [2]. `CN(CCc1ccccc1)c1nc(C(=O)NCC(F)(F)F)cc(N2CCOCC2)n1`: in assay [1], the pIC50 is 4.48. In the case of `CN(CCc1ccccc1)c1nc(C(=O)NCC2CC2)nc(N2CCOCC2)n1`, the pIC50 in assay [1] is below 4.30. `CNC(=O)CNC(=O)c1cc(N2CCOCC2)nc(N(C)CCc2ccccc2)n1` had a negative-log IC50 (pIC50) in assay [1] of 4.77. `O=C(NCC1CC1)c1cc(N2CCOCC2)nc(N(CCc2ccccc2)c2ccccc2)n1` showed a pIC50 in assay [1] of 5.95. This pIC50 lies 1.18 log units higher than the previous one. Consider `O=C(NCC1CC1)c1cc(N2CC[C@H](O)C2)nc(N2CCC[C@@H](c3ccccc3)C2)n1`, for which, in assay [2], the negative logarithm of the IC50 (pIC50) was 6.35. For the molecule `CN(CCc1ccccc1)c1nc(C(=O)NCC#N)cc(N2CCOCC2)n1`, in assay [1], the pIC50 is 4.51. In turn, `CN(CCc1ccccc1)c1nc(C(=O)O)cc(N2CCOCC2)n1` gave a negative-log IC50 (pIC50) in assay [1] below 4.30. Molecule `CCCCCCCCCCCCCC(=O)NCCNP(=O)(O)OCC(COC(=O)CCCCC)OC(=O)CCCCC` (stereo unspecified) gave a negative logarithm of the IC50 (pIC50) in assay [3] of 5.00. The molecule `CN(C)c1cc(C(=O)NCC2CC2)nc(N2CCC[C@@H](c3ccccc3)C2)n1` gave a negative logarithm of the IC50 (pIC50) in assay [2] of 6.41. `O=C(NCC1CC1)c1cc(N2CCS(=O)(=O)CC2)nc(N2CCC[C@@H](c3ccccc3)C2)n1`: the values for the pIC50 in assay [1] and in assay [2] were 4.76 and 5.02, respectively. For the molecule `CN(CCc1ccccc1)c1nc(C(=O)NCC2CC2)cc(N2CCS(=O)(=O)CC2)n1`, the pIC50 in assay [1] is below 4.30.

For the molecule `CN(CCc1ccccc1)c1nc(C(=O)NCC(=O)O)cc(N2CCOCC2)n1`, the negative-log IC50 (pIC50) in assay [1] is below 4.30. Regarding `CCCCCCNC(=O)c1cc(N2CCOCC2)nc(N(C)CCc2ccccc2)n1`, the pIC50 in assay [1] was 4.46. Consider `O=C(NCC1CC1)c1cc(N2CC[C@H](O)C2)nc(N2CCC[C@H](c3ccccc3)C2)n1`, for which the pIC50 in assay [2] was 5.74. As for `CN(CCc1ccccc1)c1nc(C(=O)NCc2nccs2)cc(N2CCOCC2)n1`, the negative logarithm of the IC50 (pIC50) in assay [1] was 4.49.

Regarding `CN(CCc1ccccc1)c1nc(C(=O)NCc2ccccc2)cc(N2CCOCC2)n1`, the negative logarithm of the IC50 (pIC50) in assay [1] was 4.63. Regarding `O=C(NCC1CC1)c1cc(N2CCOCC2)nc(Cl)n1`, in assay [1], the pIC50 is below 4.30. In turn, `CN(CCc1ccccc1)c1nc(C(=O)NCC2CC2)cc(N2CCN(C(=O)OCc3ccccc3)CC2)n1` had a pIC50 in assay [1] of 4.89. In the case of `O=C(NCC1CC1)c1cc(N2CC[C@@H](O)C2)nc(N2CCC[C@H](c3ccccc3)C2)n1`, the pIC50 in assay [2] was 5.90.

By pIC50 is commonly meant the negative decadic logarithm of the IC50, by convention in mol/L. Low values mean a high IC50, high ones a low IC50.
